From patent US11466016B2, “Pharmaceutical compounds” (priority 2018, dated 2022)
Structures can show the parent of a compound that is named as a salt.

What follows are molecules tested against SHP2 (Homo sapiens (Human), UniProt Q06124) (assay: SHP2 Biochemical Assay (DiFMUP conversion, pIRS1 activating peptide)). Settings: not given.
Method: SHP2 activity was monitored by measuring the conversion of the surrogate substrate 6,8-difluoromethylumbelliferyl phosphate (DiFMUP) to the fluorescent product, 6,8-difluoromethylumbelliferone (DiFMU).
SHP2 was pre-incubated with test compounds and the activating peptide pIRS1 (H2N-LN(pY)IDLDLV-(PEG)8-LST(pY)ASINFQK-amide) for 30 min, prior to addition of the […] (DiFMUP), (Thermo Fisher D6567). […] Rates of reaction were then measured over 30 min by monitoring fluorescence on a BMG Pherastar reader at excitation 360 nm/emission 450 nm. IC50 values were calculated from the normalized dose-response plots using four parameter logistic curve fit.
In the case of `Cn1cc2c(Cl)c(-c3c[nH]c4nc(N5[C@@H]6CC[C@H]5[C@H](F)[C@H](N)C6)cnc34)ccc2n1` (racemic) [Example 12, rac-(1S,2R,3R,5R)-8-[7-(4-chloro-2-methyl-2H-indazol-5-yl)-5H-pyrrolo[2,3-b]pyrazin-3-yl]-2-fluoro-8-azabicyclo[3.2.1]octan-3-amine], the IC50 is reported as 0.015 µM. `Cn1cc2c(Cl)c(-c3n[nH]c4nc(N5[C@H]6CC[C@@H]5[C@@H](F)[C@@H](N)C6)c(CO)nc34)ccc2n1` (racemic) [Example 78, rac-{6-[(1R,2S,3S,5S)-3-amino-2-fluoro-8-azabicyclo[3.2.1]octan-8-yl]-3-(4-chloro-2-methyl-2H-indazol-5-yl)-1H-pyrazolo[3,4-b]pyrazin-5-yl}methanol] showed an IC50 of 0.015 µM.

Same assay, conditions: DiFMUP substrate, 0.25 μM pIRS1 peptide, 30 min pre-incubation; average where more than one data point; read-out: SHP2 (IC50)
Molecule “2-(5-{3-[endo-3-amino-8-azabicyclo[3.2.1]octan-8-yl]-5H-pyrrolo[2,3-b]pyrazin-7-yl}-3,4-dichloro-2H-indazol-2-yl)ethan-1-ol [Example 36]” has an IC50 of 0.006 µM. In the case of `CN(C)c1nc2ccc(-c3n[nH]c4nc(N5C6CCC5[C@@H](F)[C@@H](N)C6)c(CO)nc34)c(Cl)c2s1` (stereo in doubt) [Example 123, {6-[(1S,2S,3S,5R)-3-amino-2-fluoro-8-azabicyclo[3.2.1]octan-8-yl]-3-[7-chloro-2-(dimethylamino)-1,3-benzothiazol-6-yl]-1H-pyrazolo[3,4-b]pyrazin-5-yl}methanol], the IC50 is reported as 0.0097 µM. `Cc1nc2ccc(-c3n[nH]c4nc(N5C6CCC5[C@@H](F)[C@@H](N)C6)c(C)nc34)c(Cl)c2s1` (stereo in doubt) [Example 146, (1S,2S,3S,5R)-8-[3-(7-chloro-2-methyl-1,3-benzothiazol-6-yl)-5-methyl-1H-pyrazolo[3,4-b]pyrazin-6-yl]-2-fluoro-8-azabicyclo[3.2.1]octan-3-amine] was tested, and the IC50 was 0.0074 µM. Molecule `Cn1cc2c(Cl)c(-c3c[nH]c4nc(N5[C@@H]6CC[C@H]5C[C@H](CN)C6)cnc34)ccc2n1` [Example 1, 1-[exo-8-[7-(4-chloro-2-methyl-2-indazol-5-yl)-5H-pyrrolo[2,3-b]pyrazin-3-yl]-8-azabicyclo[3.2.1]octan-3-yl]methanamine] has an IC50 of 0.013 µM. `Cn1cc2c(Cl)c(-c3c[nH]c4nc(N5[C@@H]6CC[C@H]5C[C@H](N)C6)cnc34)ccc2n1` [Example 2, exo-8-[7-(4-chloro-2-methyl-2H-indazol-5-yl)-5H-pyrrolo[2,3-b]pyrazin-3-yl]-8-azabicyclo[3.2.1]octan-3-amine] showed an IC50 of 0.0081 µM. `Cn1cc2c(Cl)c(-c3c[nH]c4nc(N5[C@@H]6CC[C@H]5C[C@@H](N)C6)cnc34)ccc2n1` [Example 3, endo-8-[7-(4-chloro-2-methyl-2H-indazol-5-yl)-5H-pyrrolo[2,3-b]pyrazin-3-yl]-8-azabicyclo[3.2.1]octan-3-amine] showed an IC50 of 0.01 µM. In the case of `Cn1cc2c(Cl)c(-c3c[nH]c4nc(N5CCC(N)CC5)cnc34)ccc2n1` [Example 4, 1-[7-(4-chloro-2-methyl-2H-indazol-5-yl)-5H-pyrrolo[2,3-b]pyrazin-3-yl]piperidin-4-amine], the IC50 is reported as 0.016 µM. In the case of `Cn1cc2c(Cl)c(-c3c[nH]c4nc(N5CCC(C)(N)CC5)cnc34)ccc2n1` [Example 5, 1-[7-(4-chloro-2-methyl-2H-indazol-5-yl)-5H-pyrrolo[2,3-b]pyrazin-3-yl]-4-methylpiperidin-4-amine], the IC50 is reported as 0.018 µM. `Cn1cc2c(Cl)c(-c3c[nH]c4nc(N5[C@@H]6CCC[C@H]5C[C@@H](N)C6)cnc34)ccc2n1` [Example 6, endo-9-[7-(4-chloro-2-methyl-2H-indazol-5-yl)-5H-pyrrolo[2,3-b]pyrazin-3-yl]-9-azabicyclo[3.3.1]nonan-3-amine] showed an IC50 of 0.009 µM. `Cn1cc2c(Cl)c(-c3c[nH]c4nc(N5CCC(N)(CO)CC5)cnc34)ccc2n1` [Example 7, {4-amino-1-[7-(4-chloro-2-methyl-2H-indazol-5-yl)-5H-pyrrolo[2,3-6]pyrazin-3-yl]piperidin-4-yl}methanol] showed an IC50 of 0.023 µM. `Cn1cc2c(Cl)c(-c3c[nH]c4nc(N5[C@@H]6CC[C@H]5C[C@@](C)(N)C6)cnc34)ccc2n1` [Example 8, endo-8-[7-(4-chloro-2-methyl-2H-indazol-5-yl)-5H-pyrrolo[2,3-b]pyrazin-3-yl]-3-methyl-8-azabicyclo[3.2.1]octan-3-amine, methanesulfonic acid salt] was tested, and the IC50 was 0.017 µM. Work on `Cn1cc2c(Cl)c(-c3c[nH]c4nc(N5C6CCC5CNC6)cnc34)ccc2n1` [Example 9, 4-chloro-5-(3-{3,8-diazabicyclo[3.2.1]octan-8-yl}-5H-pyrrolo[2,3-b]pyrazin-7-yl)-2-methyl-2H-indazole] yielded an IC50 of 0.026 µM. For `Cn1cc2c(Cl)c(-c3c[nH]c4nc(N5CCC6(CC5)CNC6)cnc34)ccc2n1` [Example 10, 7-[7-(4-chloro-2-methyl-2H-indazol-5-yl)-5H-pyrrolo[2,3-b]pyrazin-3-yl]-2,7-diazaspiro[3.5]nonane], the IC50 was 0.014 µM. With `Cc1nc2c(-c3ccc4nn(C)cc4c3Cl)c[nH]c2nc1N1CCC(C)(CN)CC1` [Example 11, 1-{1-[7-(4-chloro-2-methyl-2H-indazol-5-yl)-2-methyl-5H-pyrrolo[2,3-b]pyrazin-3-yl]-4-methylpiperidin-4-yl]methanamine, dihydrochloride salt] the IC50 was 0.043 µM. `N[C@H]1C[C@H]2CC[C@@H](C1)N2c1cnc2c(-c3ccc4ncsc4c3Cl)c[nH]c2n1` [Example 13, endo-8-[7-(7-chloro-1,3-benzothiazol-6-yl)-5H-pyrrolo[2,3-b]pyrazin-3-yl]-8-azabicyclo[3.2.1]octan-3-amine, methanesulfonic acid salt] showed an IC50 of 0.0062 µM. `Cc1nc2c(-c3ccc4nn(C)cc4c3Cl)c[nH]c2nc1N1CCC(C)(N)CC1` [Example 14, 1-[7-(4-chloro-2-methyl-2H-indazol-5-yl)-2-methyl-5H-pyrrolo[2,3-b]pyrazin-3-yl]-4-methylpiperidin-4-amine] gave an IC50 of 0.089 µM. With `Cc1nc2ccc(-c3c[nH]c4nc(N5[C@@H]6CC[C@H]5C[C@@H](N)C6)cnc34)c(Cl)c2s1` [Example 15, endo-8-[7-(7-chloro-2-methyl-1,3-benzothiazol-6-yl)-5H-pyrrolo[2,3-b]pyrazin-3-yl]-8-azabicyclo[3.2.1]octan-3-amine, methanesulfonic acid salt] the IC50 was 0.0059 µM. In the case of `Cn1cc2c(Cl)c(-c3c[nH]c4nc(N5CCC6(CCN6)CC5)cnc34)ccc2n1` [Example 16, 7-[7-(4-chloro-2-methyl-2H-indazol-5-yl)-5H-pyrrolo[2,3-b]pyrazin-3-yl]-1,7-diazaspiro[3.5]nonane], the IC50 is reported as 0.024 µM. `Cc1nc2c(-c3ccc4nn(C)cc4c3Cl)c[nH]c2nc1N1[C@@H]2CC[C@H]1C[C@@H](N)C2` [Example 17, endo-8-[7-(4-chloro-2-methyl-2H-indazol-5-yl)-2-methyl-5H-pyrrolo[2,3-b]pyrazin-3-yl]-8-azabicyclo[3.2.1]octan-3-amine] gave an IC50 of 0.02 µM. `CN(C)c1nc2ccc(-c3c[nH]c4nc(N5[C@@H]6CC[C@H]5C[C@@H](N)C6)cnc34)c(Cl)c2s1` [Example 18, 6-{3-[endo-3-amino-8-azabicyclo[3.2.1]octan-8-yl]-5H-pyrrolo[2,3-b]pyrazin-7-yl}-7-chloro-N,N-dimethyl-1,3-benzothiazol-2-amine, hydrochloride salt] gave an IC50 of 0.013 µM. In the case of `N[C@H]1C[C@H]2CC[C@@H](C1)N2c1cnc2c(-c3ccc4oc(=O)[nH]c4c3Cl)c[nH]c2n1` [Example 19, 5-{3-[endo-3-amino-8-azabicyclo[3.2.1]octan-8-yl]-5H-pyrrolo[2,3-b]pyrazin-7-yl}-4-chloro-2,3-dihydro-1,3-benzoxazol-2-one, hydrochloride salt], the IC50 is reported as 0.047 µM. For `Cc1nc2c(-c3ccc4nn(C)cc4c3Cl)c[nH]c2nc1N1[C@@H]2CC[C@H]1C[C@H](N)C2` [Example 20, exo-8-[7-(4-chloro-2-methyl-2H-indazol-5-yl)-2-methyl-5H-pyrrolo[2,3-b]pyrazin-3-yl]-8-azabicyclo[3.2.1]octan-3-amine], the IC50 was 0.01 µM. `Cc1nc2ccc(-c3c[nH]c4nc(N5[C@@H]6CC[C@H]5C[C@@H](N)C6)cnc34)c(Cl)c2c(=O)[nH]1` [Example 21, 6-{3-[endo-3-amino-8-azabicyclo[3.2.1]octan-8-yl]-5H-pyrrolo[2,3-b]pyrazin-7-yl}-5-chloro-2-methyl-3,4-dihydroquinazolin-4-one] was tested, and the IC50 was 0.011 µM. `CN(C)c1ccc2ccc(-c3c[nH]c4nc(N5[C@@H]6CC[C@H]5C[C@@H](N)C6)cnc34)c(Cl)c2n1` [Example 22, 7-{3-[endo-3-amino-8-azabicyclo[3.2.1]octan-8-yl]-5H-pyrrolo[2,3-b]pyrazin-7-yl}-8-chloro-N,N-dimethylquinolin-2-amine, hydrochloride salt] gave an IC50 of 0.026 µM. `N[C@H]1C[C@H]2CC[C@@H](C1)N2c1cnc2c(-c3ccc4[nH]c(=O)sc4c3Cl)c[nH]c2n1` [Example 23, 6-{3-[endo-3-amino-8-azabicyclo[3.2.1]octan-8-yl]-5H-pyrrolo[2,3-b]pyrazin-7-yl}-7-chloro-2,3-dihydro-1,3-benzothiazol-2-one, hydrochloride salt] was tested, and the IC50 was 0.0052 µM. `Cn1nc2ccc(-c3c[nH]c4nc(N5[C@@H]6CC[C@H]5C[C@@H](N)C6)cnc34)c(Cl)c2c1Cl` [Example 24, endo-8-[7-(3,4-dichloro-2-methyl-2H-indazol-5-yl)-5H-pyrrolo[2,3-b]pyrazin-3-yl]-8-azabicyclo[3.2.1]octan-3-amine, methanesulfonic acid salt] was tested, and the IC50 was 0.0043 µM. In the case of `Cn1cc2c(Cl)c(-c3c[nH]c4nc(N5CCC6(CNC6)C(F)(F)C5)cnc34)ccc2n1` [Example 25, 7-[7-(4-chloro-2-methyl-2H-indazol-5-yl)-5H-pyrrolo[2,3-b]pyrazin-3-yl]-5,5-difluoro-2,7-diazaspiro[3.5]nonane, hydrochloride salt], the IC50 is reported as 0.052 µM.
